Experimental data reported in patent US8455688B2, “HDAC inhibitors” (Lixte Biotechnology, Inc., priority 2007, dated 2013).
≈ marks a conversion by molar mass, not a printed value. Read-outs that look alike come from different tables or passages of the source.

Experiments:
[1] = test system: C. albicans; experiment: Broth dilution antifungal susceptibility testing, C. albicans; assay type: cell-based, Candida albicans; conditions: Candida albicans, 50% reduction in turbidity, read-out: minimum inhibitory concentration (MIC)
Method: (§1) A total of 23 isolates were tested to include 3 Candida albicans, 3 Candida glabrata, 3 Cryptococcus neoformans, 3 Aspergillus fumigatus, 3 Rhizopus oryzae, 3, Fusarium solani, 3 Pseudallescheria boydii, and 2 […]. All isolates were clinical isolates submitted to the Fungus Testing Laboratory for evaluation. Antifungal susceptibility testing was accomplished according to the methods outlined in the National Committee for Clinical Laboratory Standards, M-27A2, Reference Method for Broth Dilution Antifungal Susceptibility Testing of Yeasts; Approved Standard, and M38-A “Reference Method for Broth Dilution Antifungal Susceptibility Testing of Conidium-Forming Filamentous Fungi; Approved Standard”. This includes testing in RPMI-1640 with glutamine and without bicarbonate, an inoculum size of 0.5-2.5×10^3 for yeasts or […] for moulds, and incubation at 35° C. for 24 and 48 hours. […] Drug concentrations were 0.125-64 μg/ml. A 10 mg portion of each powder was weighed out and added to 1 ml of 100% DMSO for compound 205. The resulting concentration of […] was diluted to a working concentration of 6400 μg/ml for compound 205 in 100% DMSO. All subsequent dilutions were also made using the respective diluents. Final testing concentrations ranged from 0.125-64 μg/ml. The NCCLS recommended medium RPMI-1640 (Hardy Diagnostics, Santa Monica, Calif.) was utilized as the test medium. All isolates in this study were clinical isolates received in the Fungus Testing Laboratory for standard antifungal susceptibility testing and/or identification. Isolates, which were not sent for identification, were confirmed to assure testing integrity. A total of 23 were tested to include 3 Candida albicans, 3 Candida glabrata, 3 Cryptococcus neoformans, 3 Aspergillus fumigatus, 3 Rhizopus oryzae, 3, Fusarium solani, 3 Pseudallescheria boydii, and 2 […]. Minimum inhibitory concentrations (MIC) were determined at the first 24-hour interval where growth could be determined in the drug-free control tube.

[2] = test system: C. glabrata; experiment: Broth dilution antifungal susceptibility testing, C. glabrata; assay type: cell-based, Candida glabrata; conditions: Nakaseomyces glabratus, 50% reduction in turbidity, read-out: minimum inhibitory concentration (MIC)
Method: as §1

[3] = test system: C. neoformans; experiment: Broth dilution antifungal susceptibility testing, C. neoformans; assay type: cell-based; conditions: Cryptococcus neoformans, 50% reduction in turbidity, read-out: minimum inhibitory concentration (MIC)
Method: as §1

[4] = test system: R. arrhizus; experiment: Broth dilution antifungal susceptibility testing, R. arrhizus; assay type: cell-based, Rhizopus oryzae; conditions: Rhizopus arrhizus, 80% inhibition, read-out: minimum inhibitory concentration (MIC)
Method: as §1

[5] = test system: F. solani; experiment: Broth dilution antifungal susceptibility testing, F. solani; assay type: cell-based; conditions: Fusarium solani, 80% inhibition, read-out: minimum inhibitory concentration (MIC)
Method: as §1

[6] = test system: S. apiospermum; experiment: Broth dilution antifungal susceptibility testing, S. apiospermum; assay type: cell-based, Pseudallescheria boydii; conditions: Scedosporium apiospermum, 80% inhibition, read-out: minimum inhibitory concentration (MIC)
Method: as §1

[7] = test system: A. fumigatus; experiment: Broth dilution antifungal susceptibility testing, A. fumigatus; assay type: cell-based, Aspergillus fumigatus; conditions: Aspergillus fumigatus, 80% inhibition, read-out: minimum inhibitory concentration (MIC)
Method: as §1

[8] = test system: T. rubrum; experiment: Broth dilution antifungal susceptibility testing, T. rubrum; assay type: cell-based, Trichophyton rubrum; conditions: Trichophyton rubrum, 80% inhibition, read-out: minimum inhibitory concentration (MIC)
Method: as §1

COc1ccc(S)c(C(=O)NCCCCCC(=O)Nc2ccccc2)c1 [Compound 211]
MIC ([1]; 24 h, isolate 07-3006, 24 hours): > 64 µg/mL | MIC ([1]; 24 h, isolate 07-3011, 24 hours): > 64 µg/mL | MIC ([1]; 24 h, isolate 07-3012, 24 hours): > 64 µg/mL | MIC ([1]; 48 h, isolate 07-3006, 48 hours): > 64 µg/mL | MIC ([1]; 48 h, isolate 07-3011, 48 hours): > 64 µg/mL | MIC ([1]; 48 h, isolate 07-3012, 48 hours): > 64 µg/mL | MIC ([2]; 24 h, isolate 07-2964, 24 hours): > 64 µg/mL | MIC ([2]; 24 h, isolate 07-2965, 24 hours): > 64 µg/mL | MIC ([2]; 24 h, isolate 07-3013, 24 hours): > 64 µg/mL | MIC ([2]; 48 h, isolate 07-2964, 48 hours): > 64 µg/mL | MIC ([2]; 48 h, isolate 07-2965, 48 hours): > 64 µg/mL | MIC ([2]; 48 h, isolate 07-3013, 48 hours): > 64 µg/mL | MIC ([3]; 24 h, isolate 07-2665, 24 hours): 8 µg/mL (≈ 21.5 µM) | MIC ([3]; 24 h, isolate 07-2737, 24 hours): 8 µg/mL (≈ 21.5 µM) | MIC ([3]; 24 h, isolate 07-2829, 24 hours): 8 µg/mL (≈ 21.5 µM) | MIC ([3]; 48 h, isolate 07-2665, 48 hours): 16 µg/mL (≈ 43 µM) | MIC ([3]; 48 h, isolate 07-2737, 48 hours): 16 µg/mL (≈ 43 µM) | MIC ([3]; 48 h, isolate 07-2829, 48 hours): 16 µg/mL (≈ 43 µM) | MIC ([4]; 24 h, isolate 07-1870, 24 hours): 4 µg/mL (≈ 10.7 µM) | MIC ([4]; 24 h, isolate 07-2044, 24 hours): 4 µg/mL (≈ 10.7 µM) | MIC ([4]; 24 h, isolate 07-2078, 24 hours): 8 µg/mL (≈ 21.5 µM) | MIC ([4]; 48 h, isolate 07-1870, 48 hours): > 64 µg/mL | MIC ([4]; 48 h, isolate 07-2044, 48 hours): > 64 µg/mL | MIC ([4]; 48 h, isolate 07-2078, 48 hours): > 64 µg/mL | MIC ([5]; 24 h, isolate 07-1399, 24 hours): 4 µg/mL (≈ 10.7 µM) | MIC ([5]; 24 h, isolate 07-1755, 24 hours): 4 µg/mL (≈ 10.7 µM) | MIC ([5]; 24 h, isolate 07-1867, 24 hours): 2 µg/mL (≈ 5.37 µM) | MIC ([5]; 48 h, isolate 07-1399, 48 hours): 8 µg/mL (≈ 21.5 µM) | MIC ([5]; 48 h, isolate 07-1755, 48 hours): 8 µg/mL (≈ 21.5 µM) | MIC ([5]; 48 h, isolate 07-1867, 48 hours): 8 µg/mL (≈ 21.5 µM) | MIC ([6]; 24 h, isolate 07-1333, 24 hours): 2 µg/mL (≈ 5.37 µM) | MIC ([6]; 24 h, isolate 07-1502, 24 hours): 2 µg/mL (≈ 5.37 µM) | MIC ([6]; 24 h, isolate 07-1601, 24 hours): 2 µg/mL (≈ 5.37 µM) | MIC ([6]; 48 h, isolate 07-1333, 48 hours): 4 µg/mL (≈ 10.7 µM) | MIC ([6]; 48 h, isolate 07-1502, 48 hours): 4 µg/mL (≈ 10.7 µM) | MIC ([6]; 48 h, isolate 07-1601, 48 hours): 4 µg/mL (≈ 10.7 µM) | MIC ([7]; 24 h, isolate 05-388, 24 hours): 2 µg/mL (≈ 5.37 µM) | MIC ([7]; 24 h, isolate 06-4126, 24 hours): 2 µg/mL (≈ 5.37 µM) | MIC ([7]; 24 h, isolate 07-2039, 24 hours): 2 µg/mL (≈ 5.37 µM) | MIC ([7]; 48 h, isolate 05-388, 48 hours): > 64 µg/mL | MIC ([7]; 48 h, isolate 06-4126, 48 hours): > 64 µg/mL | MIC ([7]; 48 h, isolate 07-2039, 48 hours): > 64 µg/mL | MIC ([8]; 24 h, isolate 07-1743, 24 hours): ≤ 0.125 µg/mL | MIC ([8]; 24 h, isolate 07-2055, 24 hours): ≤ 0.125 µg/mL | MIC ([8]; 48 h, isolate 07-1743, 48 hours): ≤ 0.125 µg/mL | MIC ([8]; 48 h, isolate 07-2055, 48 hours): ≤ 0.125 µg/mL
